Assay [1] in a line: Isothermal calorimetry (ITC) of peptide binding to low molecular weight HA. The protocol: The binding of soluble peptide 15-1 to HA was next evaluated by isothermal calorimetry (ITC), to estimate a binding constant for the peptide (FIG. 2, the two lines represent two independent determinations in the figure). A buffered solution of 0.9 mM low molecular weight HA (10 kD average molecular weight) was injected into to a 0.6 mM peptide 15-1 solution. […] This peptide (and the scrambled control) have been further characterized in biological systems.
In general terms: Isothermal titration calorimetry measures the heat released or taken up as one component is titrated into another.

The subject of assay [2] is MDA-MB 231 cells. The assay is described as follows: Methylcellulose assay, anchorage independent growth of breast cancer cells. Conditions: MDA-MB 231 in methylcellulose; 30 ug/ml; one week; versus scrambled control peptide. In kind it is cell-based, human. The procedure: MDA-MB 231 cells were grown in Methylcellulose containing either peptide 15-1 (STMMSRSHKTRSHHV) or scrambled control peptide (HKSVSRHTSMRHSTM) (30 ug/ml). One week later, cells were counted.

Assay [3] has as its system prostate tumor cells. The assay is described as follows: In vivo growth of subcutaneously injected, peptide-pretreated tumor cells. Also noted: species or system NOD.CB17 SCID mice. As to conditions: cells pretreated with 50 micromolar peptide, tumors harvested after 28 days. The procedure: Studies have also been performed to determine if peptide 15-1 can inhibit tumor growth in a more complex microenvironment (FIG. 5). One hundred thousand tumor cells pretreated with 50 micromolar peptide 15-1 were injected subcutaneously into NOD.CB17 SCID mice. Twenty eight days later the mice were euthanized and the tumors harvested and analyzed.

Assay [4] is described as follows: Isothermal calorimetry (ITC) of peptide binding to high molecular weight HA. As to conditions: high molecular weight HA used instead of fragmented HA. From the text: The binding of soluble peptide 15-1 to HA was next evaluated by isothermal calorimetry (ITC), to estimate a binding constant for the peptide (FIG. 2, the two lines represent two independent determinations in the figure). […] This peptide (and the scrambled control) have been further characterized in biological systems.

In assay [5] the test system is MDA-MB-231 cells. The assay is described as follows: Scratch wound assay, breast cancer cell migration. In kind it is cell-based, human. As to conditions: 30 ug/ml, 24 hrs, versus scrambled control peptide. The procedure:
A confluent monolayer of MDA-MB-231 cells were scratched using a pipette tip. Cells were incubated in medium containing either peptide 15-1 (STMMSRSHKTRSHHV) or scrambled control peptide (HKSVSRHTSMRHSTM) (30 ug/ml). After 24 hrs, cells that migrated into the scratch were counted.

Assay [6] deals with Prostate tumor PC3M-LN4 cells. The assay is described as follows: Methylcellulose assay, anchorage-independent growth of prostate tumor cells with peptide. As to conditions: 50 micromolar peptide; PC3M-LN4 in methylcellulose; 7 days. The assay is classed as cell-based. The procedure: A methylcellulose assay was adapted to evaluate anchorage-independent growth of prostate tumor cells in vitro. This assay offers advantages over agarose since the gels can be easily solubilized, allowing for recovery and quantification/biochemical characterization of cells at the end of the experiment. Prostate tumor PC3M-LN4 cells which synthesize large amounts of HA grow in this assay to form large multicellular colonies. Cells were recovered and counted after 7 days of incubation.
Fifteen thousand PC3M-LN4 cells were seeded into methylcellulose in the presence of 50 micromolar of the HA binding peptide 15-1 or scrambled peptide. Each peptide was mixed with PC3M-LN4 cells prior to culturing these cells in methylcellulose (FIG. 4). Culturing these cells in the presence of 50 micromolar peptide 15-1 inhibits anchorage-independent growth by 80%, which is highly statistically significant (FIG. 4).

In assay [7] the test system is wild-type dermal fibroblast cells. The assay is described as follows: Scratch wound assay, wild-type fibroblast migration. In kind it is cell-based. As to conditions: migration stimulated by 30-mer HA. The protocol:
(§1) Scratch wound assays with Rhamm null and wildtype fibroblast cells were used to evaluate the biological properties of peptide 15-1.
(§2) Scratch wound assays are commonly used to assess the effects of drugs and drug candidates on cellular migration associated with wound closing. In a typical scratch wound assay, cells are plated to confluence in a multiwell plate. A single scratch wound is created in each well. The plate is then imaged at fixed time intervals. Cell number in the area of the scratch wound can be quantified to evaluate the characteristics of wound closing in the presence of pharmacological agents.
(§3) The lack of HA induced migration was reversed by re-expression of Rhamm (FIG. 3a).
The scratch wound assay was also used to determine the ability of various sizes of HA oligomers to promote migration of wild-type dermal fibroblast cells (FIGS. 8a and 8b).

Assay [8] has as its system Rhamm null (Rh−/−) fibroblasts. The assay is described as follows: Scratch wound assay, Rhamm null fibroblast migration. In kind it is cell-based. Conditions: with HA. The procedure: as §1, §2, §3

“Also recorded” adds a separate entry of the source.

In the case of “HKSVSRHTSMRHSTM [scrambled peptide, scrambled counterpart of peptide 15-1 used as a control, reference compound]”, the “interaction with HA” value in assay [1] (low molecular weight HA (10 kD average), same conditions as peptide 15-1) was “did not interact with HA”.

Broadly, the Kd is the free concentration of one partner at which half of the binding sites on the other are occupied at equilibrium, for simple one-to-one binding. STMMSRSHKTRSHHV [peptide 15-1]: the “anchorage independent growth of human breast cancer cells” value in assay [2] is listed as “reduce anchorage independent growth”. The tumor growth result in assay [3] is “decrease in tumor growth”. Also, the “interaction with high molecular weight HA” value in assay [4] was “greatly reduced”. Besides, in assay [5], the “scratch wound induced migration of human breast cancer cells” value is “reduces scratch wound induced migration”. Also, in assay [6], the “inhibition of anchorage-independent growth” value is 80%. In assay [1] (0.9 mM low molecular weight HA (10 kD average) injected into 0.6 mM peptide solution, estimated, read-out: binding constant (Kd)), the Kd was 100 nM. Moreover, in assay [7], the “inhibition of HA stimulated migration of wildtype cells” value was “sensitive to the inhibitory effects; also recorded: inhibited”. Also, the “inhibition of migration of Rhamm null cells” value in assay [8] is on record as “resistant to the inhibitory effects”.

These data come from patent US20100290989A1, “COMPOSITIONS AFFECTING HYALURONIC ACID MEDIATED ACTIVITY” (LONDON HEALTH SCIENCES CENTRE RESEARCH INC., priority 2007, published 2010).
